According to US5614533A, “Substituted pipecolinic acid derivatives as HIV protease inhibitors” (Bio-Mega/Boehringer Ingelheim Research, Inc., priority 1994, dated 1997):

What was measured:
HIV protease = target: T1, HIV protease (Human immunodeficiency virus type 1 group M subtype B, UniProt P04585); test: Recombinant HIV Protease HPLC Assay; type: biochemical; settings: Table IV; 37°, 30 min, pH 5.5
T1 construct: HIV protease was expressed in E. coli; made in house; host or cells: E. coli (plasmid pBRT1 prt+)
From the text: The procedure is based on the capacity of the test compound to inhibit enzymatic cleavage by HIV protease of a decapeptide (the substrate) having an amino acid sequence which includes a known HIV protease cleavage site of a HIV polyprotein; see H. G. Krausslich et al., Proc. Natl. Acad. Sci. USA, 86, 807 (1989). Details of this assay together with the results obtained for exemplified compounds of formula 1 are described in the examples hereinafter.
Recombinant HIV Protease HPLC Assay:
Enzyme: HIV protease was expressed in E. coli {construct pBRT1 prt^+, see W. G. Farmerie et al., Science, 236, 305 (1987)}, according to the following protocol:
E. coli cells containing the pBRT1 prt^+ plasmid were used to inoculate a seed culture media composed of Luria-Bertani Broth containing 100 μg/mL of ampicillin. Flasks were incubated at 37° under agitation for 17 h. Production flasks containing sterile M9 broth, supplemented with 100 μg/mL of ampicillin, were inoculated at a level of 1% (v/v) using the seed culture described above. Total volume in each production flask was 500 mL in a 2 L Erlenmeyer flask. Flasks were incubated at 37° under agitation until a cell concentration corresponding to an optical density ([…]) of 0.6 was reached (no dilution). This time span was routinely 3-4 h. Flasks were then supplemented with 5 mM isopropylthiogalactoside (IPTG, Research Organics, Cleveland, Ohio, USA) and incubation was continued until the cell concentration reached an optical density of 0.2 at 16-fold dilution. Flasks were then supplemented with 1 mM phenylmethylsulfonyl fluoride (PMSF) and rapidly chilled to 4°. The bacterial cells were recovered by centrifugation at 4°. The wet pellet was stored at -70°.
All steps below were performed at 4° unless otherwise indicated. Thawed cells were mixed with buffer A {50 mM tris(hydroxymethyl)[…] HCl (Tris-HCl, pH 7.4); 0.6 mM ethylenediaminetetraacetic acid (EDTA); 0.375M NaCl, 0.2% Nonidet P-40® (BDH Chemicals Ltd., Poole, UK); 1 mM PMSF}, at a ratio of one part cells to nine parts buffer A. Diatomaceous earth (Celite 545®, John Manville, Lompoc, Calif. USA) was added at a ratio of two parts to one part of wet cell weight. The resulting slurry was homogenized at high speed (ca. 20,000 rpm) on a Waring® industrial blender for 8×15 sec. pulses. Cell debris/Celite® was collected by centrifugation and the resulting pellet was extracted with 4.5 parts of buffer A to one part wet solids using the homogenization procedure described above. Supernatants from both homogenization steps were combined and soluble protein was precipitated by the addition of solid (NH4)2 SO4 to yield a final concentration of 75% saturation. This mixture was agitated for 60 min and the precipitate was recovered by centrifugation. The resulting pellet was suspended in buffer B {50 mM Tris-HCl, pH 8; 30 mM NaCl; 1 mM DL-dithiothreitol (DTT); 1 mM EDTA; 1 mM PMSF; 10% glycerol}, and dialyzed for 18 h against the same buffer.
An aliquot of the dialyzed extract containing 150 mg of the protein was loaded onto a Sephadex A25® anion exchange column (Pharmacia, Uppsala, Sweden) with bed dimensions of 70 cm length and 2.5 cm diameter. The sample was eluted isocratically with buffer B at a linear flow rate of 10 cm/h. Fractions containing HIV protease activity (see below for assay description) were combined, and soluble protein was precipitated by the addition of saturated aqueous (NH4)2 SO4 to yield a total (NH4)2 SO4 concentration of 85% saturation. Precipitated protein was removed by centrifugation and the resulting pellet was dissolved in buffer C {50 mM 2-(4-morpholino)ethanesulfonic acid (MES), pH 5.5; 150 mM NaCl; 1 mM DTT; 1 mM EDTA; 10% glycerol}. This preparation was dialyzed for 18 h against buffer C, and then frozen at -70°. All crude extracts were purified by chromatography in aliquots containing 150 mg of protein in the same manner as described above. […]

[1] = test system: HIV (H9/HTLV-IIIB) in C8166 cells; test: plaque assay: inhibition of syncytia formation in HIV-infected C8166 cells; type: cell-based; settings: Human immunodeficiency virus 1, IIIB, Table IV, 72 h, 50% inhibition of syncytia formation
From the text: Typical of such procedures are those described by S. Harada and N. Yamamoto, Jpn. J. Cancer Res. (Gann), 76, 432 (1985), and S. Harada et al., Science, 229, 563 (1985). An assay based on the latter procedures is described in the examples hereinafter.
The following protocol, used for screening antiviral effects of the compounds of formula 1, is adapted from a plaque assay utilizing HTLV-I transformed cells, previously reported by Harada et al., supra. HTLV-I transformed cells are used because of the rapidity with which HIV will replicate in the cells.
1. The test compound is dissolved in dimethylsulfoxide to a concentration of 5 mg/mL. The resultant solution can be stored at 4° until use.
2. The resultant solution is diluted in RPMI 1640 (Gibco Laboratories, St. Lawrence, Mass., USA) to four times (4×) the final concentration which is to be tested. Once diluted in RPMI 1640, the solution is used in the cell culture assay within 4 h.
3. The 4× solution (50 μL) is added to triplicate wells of a 96 well flat bottomed microtiter plate. RPMI (50 μL) also is added to control wells.
4. C8166 cells (5×10^4) in 50 μL of HEPES-buffered RPMI 1640 (pH=7.2), 10% heat inactivated fetal calf serum (FCS), […] gentamicin (complete media) are added to all wells.
5. Fifty times TCID50 of H9/HTLV-IIIB stock (stored in liquid nitrogen as cell culture supernatant in 50% FCS) in 100 μL of complete media is added to all wells. Infectious titer of virus stocks are as previously determined by end point dilution on C8166 cells. Titer of stocks are stable for 6-12 months when stored at -193°.
6. Microtiter plates are then placed on level shelves of a 37°, 5% CO2 humidified incubator for 72 h.
7. Plates are then removed and centers of syncytia are counted in each well by low power phase contrast light microscopy. […] Control wells should have between 25 and 75 centers of syncytia per well.
8. Percent inhibition of syncytia formation is calculated by the formula: [formula]
The concentration of the test compound which causes a 50% inhibition of syncytia formation, i.e. the EC50, is determined by using the technique of serial dilution of the working solution at step 3 and by using non-linear regression analysis (SAS® program) to graphically plot the observed percent inhibition of syncytia formation against the various concentrations of the test compound.

Row | SMILES | IC50 (HIV protease) | EC50 [1]
1 | CC(C)(C)NC(=O)[C@@H]1C[C@H](c2ccccc2)CCN1C[C@@H](O)[C@H](Cc1ccccc1)NC(=O)[C@H](CC(N)=O)NC(=O)OCc1ccccc1 [Table IV, entry 12] | 6.3 nM | 150 nM
2 | CC(C)[C@H](NC(=O)OCc1ccccc1)C(=O)N[C@@H](Cc1ccccc1)[C@H](O)CN1CC[C@@H](Cc2ccccc2)C[C@H]1C(=O)NC(C)(C)C [Table IV, entry 13] | 4.1 nM | 40 nM
3 | CC(C)[C@H](NC(=O)OCc1ccccc1)C(=O)N[C@@H](Cc1ccccc1)[C@H](O)CN1CC[C@@H](S(=O)(=O)c2ccccc2)C[C@H]1C(=O)NC(C)(C)C [Table IV, entry 14] | 2.3 nM | 40 nM
4 | CC(C)(C)NC(=O)[C@@H]1C[C@H](S(=O)(=O)c2ccccc2)CCN1C[C@@H](O)[C@H](Cc1ccccc1)NC(=O)[C@H](CC(N)=O)NC(=O)OCc1ccccc1 [Table IV, entry 15] | 2.9 nM | 1270 nM
5 | CC(C)[C@H](NC(=O)OCc1ccccc1)C(=O)N[C@@H](Cc1ccccc1)[C@H](O)CN1CC[C@@H](Oc2ccccc2)C[C@H]1C(=O)NC(C)(C)C [Table IV, entry 16] | 2.7 nM | 150 nM
6 | CC(C)(C)NC(=O)[C@@H]1C[C@H](Oc2ccccc2)CCN1C[C@@H](O)[C@H](Cc1ccccc1)NC(=O)[C@H](CC(N)=O)NC(=O)OCc1ccccc1 [Table IV, entry 17] | 2.5 nM | 42 nM
7 | CC(C)[C@H](NC(=O)OCc1ccccc1)C(=O)N[C@@H](Cc1ccccc1)[C@H](O)CN1CC[C@@H](Oc2ccccn2)C[C@H]1C(=O)NC(C)(C)C [Table IV, entry 18] | 1.8 nM | 56 nM
8 | CC(C)[C@H](NC(=O)OCc1ccccc1)C(=O)N[C@@H](Cc1ccccc1)[C@H](O)CN1CC[C@@H](C2CCCCC2)C[C@H]1C(=O)NC(C)(C)C [Table IV, entry 19] | 8 nM | 200 nM
9 | CC(C)[C@H](NC(=O)c1ccc2ccccc2n1)C(=O)N[C@@H](Cc1ccccc1)[C@H](O)CN1CC[C@@H](Sc2ccccc2)C[C@H]1C(=O)NC(C)(C)C [Table IV, entry 20, N-tert-butyl-1-{2(R)-hydroxy-4-phenyl-3(S)-{(N-(2-quinolinylcarbonyl)valyl}amino}butyl}-4(R)-(phenylthio)piperidine-2(S)-carboxamide] | 3.1 nM | 12 nM
10 | CC(C)(C)NC(=O)[C@@H]1C[C@H](Oc2ccccc2)CCN1C[C@@H](O)[C@H](Cc1ccccc1)NC(=O)[C@H](CC(N)=O)NC(=O)c1ccc2ccccc2n1 [Table IV, entry 21, N-tert-butyl-1-{2(R)-hydroxy-4-phenyl-3(S)-{{N-(2-quinolinylcarbonyl)asparaginyl}amino}butyl}-4(R)-phenoxypiperidine-2(S)-carboxamide] | 5.4 nM | 15 nM
11 | CC(C)(C)NC(=O)[C@@H]1C[C@H](S(=O)(=O)c2ccccc2)CCN1C[C@@H](O)[C@H](Cc1ccccc1)NC(=O)[C@H](CC(N)=O)NC(=O)c1ccc2ccccc2n1 [Table IV, entry 22, N-tert-butyl-1-{2(R)-hydroxy-4-phenyl-3(S)-{{N-(2-quinolinylcarbonyl)asparaginyl}amino}butyl}-4(R)-(phenylsulfonyl)piperidine-2(S)-carboxamide] | 4.7 nM | 450 nM
12 | CC(C)(C)NC(=O)[C@@H]1C[C@H](Sc2ccccc2)CCN1C[C@@H](O)[C@H](Cc1ccccc1)NC(=O)[C@H](CC(N)=O)NC(=O)c1ccc2ccccc2n1 [Table IV, entry 23, N-tert-butyl-1-{2(R)-hydroxy-4-phenyl-3(S)-{{N-(2-quinolinylcarbonyl)asparaginyl}amino}butyl}-4(R)-(phenylthio)piperidine-2(S)-carboxamide] | 1.8 nM | 10 nM
13 | CC(C)[C@H](NC(=O)c1ccc2ccccc2c1)C(=O)N[C@@H](Cc1ccccc1)[C@H](O)CN1CC[C@@H](Sc2ccccc2)C[C@H]1C(=O)NC(C)(C)C [Table IV, entry 24, N-tert-butyl-1-{2(R)-hydroxy-4-phenyl-3(S)-{{N-(2-naphthalenylcarbonyl)valyl}amino}butyl}-4(R)-(phenylthio)piperidine-2(S)-carboxamide] | 2.3 nM | 16 nM
14 | CC(C)(C)NC(=O)[C@@H]1C[C@H](Sc2ccccc2)CCN1C[C@@H](O)[C@H](Cc1ccccc1)NC(=O)[C@H](CC(N)=O)NC(=O)c1ccc2ccccc2c1 [Table IV, entry 25, N-tert-butyl-1-{2(R)-hydroxy-3(S)-{{N-(2-naphthalenylcarbonyl)asparaginyl}amino}-4-phenylbutyl}-4(R)-(phenylthio)piperidine-2(S)-carboxamide] | 1.9 nM | 33 nM
15 | CC(C)[C@H](NC(=O)OCc1ccccc1)C(=O)N[C@@H](Cc1ccc(F)cc1)[C@H](O)CN1CC[C@@H](Sc2ccccc2)C[C@H]1C(=O)NC(C)(C)C [Table IV, entry 26, N-tert-butyl-1-{3(S)-{{N-(benzyloxycarbonyl)valyl}amino}-2(R)-hydroxy-4-(4-fluorophenyl)butyl}-4(R)-(phenylthio)piperidine-2(S)-carboxamide] | 3.5 nM | 24 nM
16 | CC[C@H](C)[C@H](NC(=O)OCc1ccccn1)C(=O)N[C@@H](Cc1ccccc1)[C@H](O)CN1CC[C@@H](c2ccccc2)C[C@H]1C(=O)NC(C)(C)C [Table IV, entry 27, N-tert-butyl-1-{2(R)-hydroxy-4-phenyl-3(S)-{{N-{(2-pyridinylmethoxy)carbonyl}isoleucyl}amino}butyl}-4(R)-phenylpiperidine-2(S)-carboxamide] | 4.9 nM | 500 nM
17 | CC(C)(C)NC(=O)[C@@H]1C[C@H](Sc2ccccn2)CCN1C[C@@H](O)[C@H](Cc1ccccc1)NC(=O)OCc1ccccc1 [Table IV, entry 28] | 16 nM | 500 nM
